Data as given in the OPERA property sets (Mansouri et al. 2018).

Row | SMILES | logP
1 | Cn1cncc1[N+](=O)[O-] | 0.13
2 | COc1c([N+](=O)[O-])ncn1C | 0.19
3 | Cn1cnc([N+](=O)[O-])c1 | -0.44
4 | COc1nc[nH]c1[N+](=O)[O-] | 0.13
5 | O=[N+]([O-])c1nc[nH]c1Br | 0.85
6 | Cn1cnc(Br)c1[N+](=O)[O-] | 0.77
7 | Cn1cc([N+](=O)[O-])nc1Cl | 0.19
8 | Cn1cnc(Cl)c1[N+](=O)[O-] | 0.69
9 | Cc1nc([N+](=O)[O-])c(Br)[nH]1 | 1.14
10 | Cc1[nH]c(Br)nc1[N+](=O)[O-] | 0.86
11 | O=[N+]([O-])c1nc[nH]c1Cl | 0.78
12 | Cc1[nH]cnc1[N+](=O)[O-] | 0.23
13 | Cn1cnc([N+](=O)[O-])c1Br | 0.36
14 | Cn1cnc([N+](=O)[O-])c1N | -1
15 | COc1nc(C)[nH]c1[N+](=O)[O-] | 0.21
16 | Cn1ccnc1[N+](=O)[O-] | -0.17
17 | Cc1nc(Br)n(C)c1[N+](=O)[O-] | 0.82
18 | Cn1cc([N+](=O)[O-])nc1Br | 0.33
19 | Cn1c([N+](=O)[O-])cnc1Cl | 0.62
